The compounds below were run against Genome polyprotein (Hepatitis C virus genotype 1a (isolate H77), UniProt P27958) (assay: Continuous Spectrophotometric Assay). Details: not given.
Description: Proteolytic cleavage of the ester linkage between the Nva (L-norvaline) and the chromophore (PAP) was monitored for change in absorbance at 370 nm. Initial velocities were determined using linear regression and kinetic constants were obtained by fitting the data to the Michaelis-Menten equation.

Chain of Genome polyprotein (P27958 1027-1657 limits assumed): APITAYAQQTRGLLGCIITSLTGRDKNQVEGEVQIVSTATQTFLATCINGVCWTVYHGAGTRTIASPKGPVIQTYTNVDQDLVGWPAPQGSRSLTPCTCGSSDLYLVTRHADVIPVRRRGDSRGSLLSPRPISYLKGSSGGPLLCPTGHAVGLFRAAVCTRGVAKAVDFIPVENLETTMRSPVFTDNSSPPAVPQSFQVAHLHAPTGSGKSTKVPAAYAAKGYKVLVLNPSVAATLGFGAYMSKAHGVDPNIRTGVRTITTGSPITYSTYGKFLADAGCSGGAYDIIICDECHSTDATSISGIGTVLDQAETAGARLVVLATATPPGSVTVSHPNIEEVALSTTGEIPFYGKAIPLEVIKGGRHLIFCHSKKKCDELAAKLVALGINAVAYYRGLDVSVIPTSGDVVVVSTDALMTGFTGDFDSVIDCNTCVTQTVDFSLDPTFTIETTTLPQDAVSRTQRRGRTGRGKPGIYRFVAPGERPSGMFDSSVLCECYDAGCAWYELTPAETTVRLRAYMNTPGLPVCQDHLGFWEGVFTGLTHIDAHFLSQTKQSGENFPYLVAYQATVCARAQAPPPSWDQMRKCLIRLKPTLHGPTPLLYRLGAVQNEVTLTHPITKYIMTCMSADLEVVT

Compared with `C=CCNC(=O)C(=O)[C@@H]1CCCCCCCCC[C@H](NC(=O)N[C@H](CN2Cc3sccc3S2(=O)=O)C(C)(C)C)C(=O)N2C[C@H]3[C@@H]([C@H]2C(=O)N1)C3(C)C` [2-[(3S,13S,16S,17R,19S)-3-({[(2S)-1-(1,1-dioxo-2H,3H-1,4,2-thieno[2,3-d][1,2]thiazol-2-yl)-3,3-dimethylbutan-2-yl]carbamoyl}amino)-18,18-dimethyl-2,15-dioxo-1,14-diazatricyclo[14.4.0.0^{17,19}]icosan-13-yl]-2-oxo-N-(prop-2-en-1-yl)acetamide], `C=CCNC(=O)C(=O)[C@@H]1CCCCCCCCC[C@H](NC(=O)N[C@H](CN2C(=O)C3CCC(C3)C2=O)C(C)(C)C)C(=O)N2C[C@H]3[C@@H]([C@H]2C(=O)N1)C3(C)C` [2-[(3S,13S,16S,17R,19S)-3-({[(2S)-1-{2,4-dioxo-3-azabicyclo[3.2.1]octan-3-yl}-3,3-dimethylbutan-2-yl]carbamoyl}amino)-18,18-dimethyl-2,15-dioxo-1,14-diazatricyclo[14.4.0.0^{17,19}]icosan-13-yl]-2-oxo-N-(prop-2-en-1-yl)acetamide] is 2.3-fold lower in Ki: 7 nM for the first, 3 nM for the second. The second binds more tightly here.

In the case of `C=CCNC(=O)C(=O)[C@@H]1CCCCCCCCC[C@H](NC(=O)N[C@H](C(=O)C2CC2)C2CCCCC2)C(=O)N2C[C@H]3[C@@H]([C@H]2C(=O)N1)C3(C)C` [2-[(3S,13S,16S,17R,19S)-3-({[(1S)-1-cyclohexyl-2-cyclopropyl-2-oxoethyl]carbamoyl}amino)-18,18-dimethyl-2,15-dioxo-1,14-diazatricyclo[14.4.0.0^{17,19}]icosan-13-yl]-2-oxo-N-(prop-2-en-1-yl)acetamide], the Ki is reported as 6 nM.

Same assay, conditions: pH 6.5; 30 °C

`CN(C)C(=O)[C@@H](NC(=O)CNC(=O)C(=O)[C@@H]1CCCCCCCCCC[C@H](NC(=O)NC(C)(C)C)C(=O)N2C[C@H]3[C@@H]([C@H]2C(=O)N1)C3(C)C)c1ccccc1` [2-[(3S,14S,17S,18R,20S)-3-[(tert-butylcarbamoyl)amino]-19,19-dimethyl-2,16-dioxo-1,15-diazatricyclo[15.4.0.0^{18,20}]henicosan-14-yl]-N-({[(S)-(dimethylcarbamoyl)(phenyl)methyl]carbamoyl}methyl)-2-oxoacetamide] and `CN(C)C(=O)[C@@H](NC(=O)CNC(=O)C(=O)[C@@H]1CCCCCCCCCC[C@H](NC(=O)OC(C)(C)C)C(=O)N2C[C@H]3[C@@H]([C@H]2C(=O)N1)C3(C)C)c1ccccc1` [tert-butyl N-[(3S,14S,17S,18R,20S)-14-{[({[(S)-(dimethylcarbamoyl)(phenyl)methyl]carbamoyl}methyl)carbamoyl]carbonyl}-19,19-dimethyl-2,16-dioxo-1,15-diazatricyclo[15.4.0.0^{18,20}]henicosan-3-yl]carbamate] are the same in Ki: 6 nM for the first, 6 nM for the second.

`CCNC(=O)C(=O)[C@@H]1CCCCCCCCC[C@H](NC(=O)N[C@H](CN(C)S(=O)(=O)c2cccs2)C(C)(C)C)C(=O)N2C[C@H]3[C@@H]([C@H]2C(=O)N1)C3(C)C` [2-[(3S,13S,16S,17R,19S)-3-({[(2S)-3,3-dimethyl-1-[methyl(thiophene-2-)sulfonamido]butan-2-yl]carbamoyl}amino)-18,18-dimethyl-2,15-dioxo-1,14-diazatricyclo[14.4.0.0^{17,19}]icosan-13-yl]-N-ethyl-2-oxoacetamide] and `CCCNC(=O)C(=O)[C@@H]1CCCCCCCCC[C@H](NC(=O)N[C@H](CN(C)S(=O)(=O)c2cccs2)C(C)(C)C)C(=O)N2C[C@H]3[C@@H]([C@H]2C(=O)N1)C3(C)C` [2-[(3S,13S,16S,17R,19S)-3-({[(2S)-3,3-dimethyl-1-[methyl(thiophene-2-)sulfonamido]butan-2-yl]carbamoyl}amino)-18,18-dimethyl-2,15-dioxo-1,14-diazatricyclo[14.4.0.0^{17,19}]icosan-13-yl]-2-oxo-N-propylacetamide] are within 1.5-fold of each other in Ki: 10 nM for the first, 14 nM for the second.

Going from `CC(C)(C)OC(=O)N[C@H]1CCCCCCCCCC[C@@H](C(=O)C(N)=O)NC(=O)[C@@H]2[C@@H]3[C@H](CN2C1=O)C3(C)C` [tert-butyl N-[(3S,14S,17S,18R,20S)-14-(carbamoylcarbonyl)-19,19-dimethyl-2,16-dioxo-1,15-diazatricyclo[15.4.0.0^{18,20}]henicosan-3-yl]carbamate] to `CC(C)(C)OC(=O)N[C@H]1CCCCCCC[C@@H](C(=O)C(N)=O)NC(=O)[C@@H]2[C@@H]3[C@H](CN2C1=O)C3(C)C` [tert-butyl N-[(3S,11S,14S,15R,17S)-11-(carbamoylcarbonyl)-16,16-dimethyl-2,13-dioxo-1,12-diazatricyclo[12.4.0.0^{15,17}]octadecan-3-yl]carbamate], the Ki rises from 59 nM to 210 nM (3.6-fold). The first binds more tightly here.

Compared with `C=CCCCC[C@H](NC(=O)[C@@H]1[C@@H]2[C@H](CN1C(=O)[C@H](CCCCC=C)NC(=O)OC(C)(C)C)C2(C)C)C(=O)C(N)=O` [tert-butyl N-[(2S)-1-[(1R,2S,5S)-2-{[(2S)-1-carbamoyl-1-oxooct-7-en-2-yl]carbamoyl}-6,6-dimethyl-3-azabicyclo[3.1.0]hexan-3-yl]-1-oxooct-7-en-2-yl]carbamate], `CC(C)(C)OC(=O)N[C@H]1CCCCCCCCCC[C@@H](C(=O)C(=O)NCC(=O)NCc2ccccc2)NC(=O)[C@@H]2[C@@H]3[C@H](CN2C1=O)C3(C)C` [tert-butyl N-[(3S,14S,17S,18R,20S)-14-({[(benzylcarbamoyl)methyl]carbamoyl}carbonyl)-19,19-dimethyl-2,16-dioxo-1,15-diazatricyclo[15.4.0.0^{18,20}]henicosan-3-yl]carbamate] is 2.8-fold lower in Ki: 250 nM for the first, 89 nM for the second. The second binds more tightly here.

First: CN(C[C@@H](NC(=O)N[C@H]1CCCCCCCCC[C@@H](C(=O)C(N)=O)NC(=O)[C@@H]2[C@@H]3[C@H](CN2C1=O)C3(C)C)C(C)(C)C)S(C)(=O)=O [2-[(3S,13S,16S,17R,19S)-3-({[(2S)-1-[methane(methyl)sulfonamido]-3,3-dimethylbutan-2-yl]carbamoyl}amino)-18,18-dimethyl-2,15-dioxo-1,14-diazatricyclo[14.4.0.0^{17,19}]icosan-13-yl]-2-oxoacetamide]
Second: CC(C)(C)NC(=O)N[C@H]1CCCCCCCCCC[C@@H](C(=O)C(N)=O)NC(=O)[C@@H]2[C@@H]3[C@H](CN2C1=O)C3(C)C [2-[(3S,14S,17S,18R,20S)-3-[(tert-butylcarbamoyl)amino]-19,19-dimethyl-2,16-dioxo-1,15-diazatricyclo[15.4.0.0^{18,20}]henicosan-14-yl]-2-oxoacetamide]
The Ki of the first is 20-fold lower: 3 nM for the first, 59 nM for the second.

First: C=CCNC(=O)C(=O)[C@@H]1CCCCCCCCC[C@H](NC(=O)N[C@H](CN(C)S(=O)(=O)c2cccs2)C(C)(C)C)C(=O)N2C[C@H]3[C@@H]([C@H]2C(=O)N1)C3(C)C [2-[(3S,13S,16S,17R,19S)-3-({[(2S)-3,3-dimethyl-1-[methyl(thiophene-2-)sulfonamido]butan-2-yl]carbamoyl}amino)-18,18-dimethyl-2,15-dioxo-1,14-diazatricyclo[14.4.0.0^{17,19}]icosan-13-yl]-2-oxo-N-(prop-2-en-1-yl)acetamide]
Second: CC(C)[C@H](NC(=O)N[C@H]1CCCCCCCCC[C@@H](C(=O)C(N)=O)NC(=O)[C@@H]2[C@@H]3[C@H](CN2C1=O)C3(C)C)C(=O)C1CC1 [2-[(3S,13S,16S,17R,19S)-3-({[(2S)-1-cyclopropyl-3-methyl-1-oxobutan-2-yl]carbamoyl}amino)-18,18-dimethyl-2,15-dioxo-1,14-diazatricyclo[14.4.0.0^{17,19}]icosan-13-yl]-2-oxoacetamide]
The Ki of the first is 2.2-fold lower: 5 nM for the first, 11 nM for the second. The first binds more tightly here.

In the case of `CC1(NC(=O)N[C@H]2CCCCCCCCCC[C@@H](C(=O)C(N)=O)NC(=O)[C@@H]3[C@@H]4[C@H](CN3C2=O)C4(C)C)CCCCC1` [2-[(3S,14S,17S,18R,20S)-19,19-dimethyl-3-{[(1-methylcyclohexyl)carbamoyl]amino}-2,16-dioxo-1,15-diazatricyclo[15.4.0.0^{18,20}]henicosan-14-yl]-2-oxoacetamide], the Ki is reported as 36 nM.

Source: BindingDB's records for doi:10.1021/jm800940u (Schering-Plough Research Institute, 2009)
